Experimental data taken from US10130629B2, “Pharmaceutical combinations” (Novartis AG, priority 2015, dated 2018).

What was measured:
[1] = system: HuH-7 hepatocellular carcinoma cells; test: CellTiter Glo (CTG) proliferation assay; type: cell-based; conditions: Homo sapiens, Huh-7, 72 h; 3 days incubation; half-maximal growth inhibition; read-out: HUH7 proliferation (nM) CTG
Experimental: CellTiter Glo (CTG) assay: The functional effect of compounds on cell proliferation is assessed using HuH-7 hepatocellular carcinoma cells obtained from the Japanese Collection of Research Bioresources Cell Bank (Cat# JCRB0403) and cultured in the vendor-recommended medium (DMEM high glucose (Amimed Cat#1-26F01-I), 10% foetal calf serum (Invitrogen Cat#16140-071), 1 mM sodium pyruvate (Amimed Cat#5-60F00-H), 1× Penicillin/Streptomycin (Amimed Cat#4-01F00-H)) at 37° C. in a humidified 5% CO2 incubator. Compound-mediated suppression of cell proliferation/viability is assessed by quantification of cellular ATP levels using the CellTiter-Glo (CTG) reagent (Promega, Cat# G7573). […] Dose-response effects are assessed by 3-fold serial dilutions of the test compound, starting at 10 μM. Following incubation of the cells for 3 days at 37° C. and 5% CO2, the effect of inhibitors on cell viability is quantified following addition of 50 μl CTG and luminescence measurement (integration time: 500 ms) as per vendor manual, using a correspondingly equipped multi-mode plate reader (M200Pro, TECAN, Switzerland). For data analysis, the assay background value determined in wells containing medium, but no cells, is subtracted from all data points. […] Compound concentrations leading to half-maximal growth inhibition ([…]) are determined using standard four parameter curve fitting (XLfit 5.2., IDBS, UK).

[2] = system: HuH-7 hepatocellular carcinoma cells; test: Methylene blue staining proliferation assay (MBS); type: cell-based; conditions: Homo sapiens, 72 hours after compound addition, read-out: HUH7 proliferation (nM) MBS
Experimental: Methylene blue staining proliferation assay (MBS): The effect of the compound on cell proliferation is assessed using HuH-7 hepatocellular carcinoma cells obtained from the Japanese Collection of Research Bioresources Cell Bank (Cat# JCRB0403) and cultured in the vendor-recommended medium (DMEM high glucose (Amimed Cat#1-26F01-I), 10% foetal calf serum (Invitrogen Cat#16140-071), 1 mM sodium pyruvate (Amimed Cat#5-60F00-H), 1× Penicillin/Streptomycin (Amimed Cat#4-01F00-H)) at 37° C. in a humidified 5% CO2 incubator. Specifically, 5000 cells/well were seeded in 96-well tissue culture plates (TPP Cat#92696) in a total media volume of 100 μl/well and increasing compound dilutions or DMSO were added 24 hours thereafter in triplicates. 72 hours after compound addition, cells were fixed by adding 25 μL/well of 20% glutaraldehyde (Sigma Aldrich Cat# G400-4) and incubated for 10 minutes at room temperature. Cells were washed three times with H2O, 200 μL/well and stained with 100 μL/well 0.05% methylene blue (ABCR GmbH Cat# AB117904) for 10 minutes at room temperature. Cells were washed 3 times with H2O, 200 μL/well and then lysed by adding 200 μL/well of 3% HCl (Fluka Cat#84422) for 30 minutes at room temperature with shaking. Optical density was measured at A650 nm. […]

Structure (SMILES): COCCNc1cc(NC(=O)N2CCCc3cc(CN4CCN(C)CC4=O)c(C=O)nc32)ncc1C#N [Example 83, N-(5-cyano-4-((2-methoxyethyl)amino)pyridin-2-yl)-7-formyl-6-((4-methyl-2-oxopiperazin-1-yl)methyl)-3,4-dihydro-1,8-naphthyridine-1(2H)-carboxamide]
- IC50 [1]: 60.9 nM
- IC50 [2]: 12 nM
